Measurements published in patent publication US20220265766A1, “ANTIMICROBIAL THERAPY THROUGH THE COMBINATION OF PORE-FORMING AGENTS AND HISTONES” (THE REGENTS OF THE UNIVERSITY OF CALIFORNIA, priority 2019, published 2022).
Entries after “also recorded” stand apart in the source; their conditions may differ.

Assays:
E. coli [1] = assay type: cell-based, Escherichia coli; conditions: 1 mM magnesium; 10 μg/mL H2A, 2 μM LL-37, 10 μM MAG2, 1 μg/mL PMB, 10 μg/mL Kan, 10 μg/mL Cam, alone or combined
Description: Growth curve experiments were performed using a Synergy HTX multi-mode plate reader and sterile, tissue-culture treated, clear bottom, black polystyrene 96-well microplates (Corning). The temperature setpoint was 37° C. and preheated before beginning measurements. Each well contained 200 μL of total bacterial solution. For experiments performed with stationary phase bacteria, overnight cultures of bacteria were grown overnight to saturation, diluted 1:1000 into minimal medium with 1 μM or 1 mM MgSO4, and supplemented with H2A, LL-37, kanamycin, chloramphenicol, or polymyxin B. For experiments performed with exponential phase bacteria, overnight cultures of bacteria were sub-cultured in fresh minimal medium containing 1 mM MgSO4 and grown to an optical density at 600 nm (OD600) of 0.2. Exponential-phase bacteria were diluted 1:20 into fresh minimal medium with 1 μM or 1 mM MgSO4, and supplemented with H2A, LL-37, magainin-2, kanamycin, chloramphenicol, or polymyxin B. After adding antimicrobial agents, bacterial cultures were immediately added to the 96-well microplates for growth measurements. Growth curves were constructed by taking measurements every 15 minutes for up to 48 hours. Shaking was set to continuous orbital, with a frequency of 282 cpm (3 mm). The read speed was normal, with a 100 msec delay, and 8 measurements per data points.

E. coli [2] = experiment: Fluorescent histone and fluorescent LL-37 uptake in E. coli; assay type: cell-based, Escherichia coli; conditions: 1 hour; for AF-H2A uptake (cellular fluorescence): 10 μg/mL AF-H2A alone or with 10 μg/mL Cam, 50 μg/mL Kan, 2 μM LL-37, 1 μg/mL PMB or 10 μM MAG2, 1 mM magnesium
Description: E. coli strain MG1655 or S. aureus strain RN4220 was cultured to an OD600 of 0.2, and diluted 1:20 into fresh minimal medium containing 1 mM MgSO4. H2A uptake in E. coli was measured by adding 10 μg/mL AF-H2A (1% Alexa Fluor-labeled H2A mixed with 99% unlabeled H2A) and 10 μg/mL Cam, 50 μg/mL Kan, 2 μM LL-37, 1 μg/mL PMB, or 10 μM MAG2, incubating for 1 hour, and analyzing using fluorescence microscopy. H2A uptake in S. aureus was measured using same concentrations of AF-H2A and LL-37. To measure uptake in low ionic conditions, E. coli was grown to OD600 of 0.2 in minimal medium containing 1 mM MgSO4, and diluted 1:20 into fresh minimal medium containing 1 μM or 1 mM MgSO4. H2A uptake in E. coli was measured by adding 10 μg/mL AF-H2A (1% Alexa Fluor-labeled H2A mixed with 99% unlabeled H2A), incubating for up to 3 hours, and analyzing using fluorescence microscopy. LL-37 uptake in both bacteria was measured by adding 1 μM fluorescently-labeled LL-37 (1% 5-FAM-LC-LL-37 (Anaspec) mixed with 99% unlabeled LL-37) or additionally with 10 μg/mL unlabeled H2A, incubating for 1 hour, and imaging using fluorescence microscopy. Time-lapse measurements of LL-37 uptake in E. coli were performed by adding 2 μM fluorescently-labeled LL-37 (3% 5-FAM-LC-LL-37 mixed with 97% unlabeled LL-37) or additional 10 μg/mL unlabeled H2A, immobilizing on agarose pads, and imaging using fluorescence microscopy. Cell membranes were visualized by adding 1.6 μM FM4-64 (MilliporeSigma, Burlington, Mass.), immobilizing on agarose pads, and imaging using fluorescence microscopy.

E. coli [3] = experiment: Timelapse of E. coli recovery and time course of membrane healing (CFP, PI); assay type: cell-based, Escherichia coli; conditions: then washed
Description: To quantify the time-course of recovery in E. coli treated with LL-37 alone or with the synergistic combination of LL-37 and H2A, MAL204 was cultured to mid-exponential phase in MinA minimal medium, added 1 μM LL-37 or 1 μM LL-37 with 10 μg/mL H2A, and incubated for 1 hour. The solution was filtered through a 0.22 μm filter to remove excess LL-37 and H2A and cells were resuspended in fresh minimal medium. Cells were immobilized on a 1% agarose pad and imaged over an hour time period.
To quantify the time-course of membrane repair in bacteria treated with H2A alone, AMPs alone, or the synergistic combination of AMPs and H2A, MAL204 was grown to mid-exponential phase in MinA minimal medium, diluted 1:20 with 10 μg/mL H2A, 1 μM LL-37, 1 μM LL-37 with 10 μg/mL H2A, 10 μM MAG2, or 1 μM MAG2 with 10 μg/mL H2A, and incubated for 1 hour. […] Cells were allowed to recover for 0, 30, 60 minutes before the addition of 30 μM propidium iodide for 15 minutes prior to performing fluorescence microscopy. Intracellular propidium iodide fluorescence and CFP fluorescence were quantified. To quantify the time-course of membrane repair in bacteria treated with H2A in low and physiological environments, MAL204 was grown to mid-exponential phase, diluted 1:20 into minimal media with 1 μM or 1 mM MgSO4, with or without 10 μg/mL H2A, and incubated for 3 hours. […]

E. coli genomic DNA = experiment: Non-denaturing nucleic acid PAGE; assay type: binding, Escherichia coli; conditions: 1 μg DNA with 0-1.4 μg H2A or LL-37
Description: Overnight MG1655 cultures were grown to saturation in Minimal. DNA purification was performed using a Miniprep kit (Qiagen, Germantown, Md.). A three-second sonication step was performed after lysis to isolate genomic DNA.
10 μL mixtures containing 1 μg purified DNA from MG1655 were incubated with 0-1.4 μg Histone H2A or LL-37 for 25 minutes at 25° C. Gel loading sample buffer (5×, Bio-Rad, Hercules, Calif.) was added to a final concentration of 1× and the products were separated by native PAGE on a 5% TBE gel (Bio-Rad, Hercules, Calif.) at 100 V for 60 minutes. The gel was stained with 1×SYBR safe (Invitrogen, Carlsbad, Calif.) in TBE buffer^71 for 30 minutes before visualization using a EOS Rebel T5 DSLR camera with an f/3.5-5.6 18-55 mm lens (Canon, Huntington, N.Y.) and a DR46B Transilluminator (Clare Chemical, Dolores, Colo.).

E. coli [4] = experiment: Chromosomal analysis using SYTOX and HupA-mRuby2; assay type: cell-based, Escherichia coli; conditions: 10 μg/mL H2A, 2 μM LL-37 or both; 3 hours
Description: MG1655 or XL-1 Blue expressing HupA-mRuby2 was cultured to OD600 of 0.2, diluted 1:20 into fresh MinA minimal medium, and treated with 2 μM LL-37, 10 μg/mL H2A or both LL-37 and H2A for 30 minutes. For SYTOX visualization, MG1655 were stained with 3 uM SYTOX Green nucleic acid stain (ThermoFisher, Waltham, Mass.) for 10 minutes. Cells were immobilized on agarose pads containing 2 uM LL-37, 10 μg/mL H2A, or both LL-37 and H2A, and remained on the pad for 3 hours before imaging using the fluorescence microscopy. For SYTOX analysis, pads additionally contained 5 uM SYTOX Green. Raw images were analyzed through principal component analysis using our own custom-written image analysis tools^67,68 version 1.1 and modified in Matlab (Version R2017b; Mathworks, Natick, Mass.). See ‘Code Availability’ section below for code. Individual cells were identified in phase contrast images using canny edge detection and using SuperSegger^70. […] The covariances between corresponding pixels of different cells were computed using the 16 bit intensity values from the rotated and resized fluorescence images and for the same images rotated by an additional 180 degrees. […] The size of each bin was determined by subtracting the minimum principal component score from the maximum principal component score and dividing that by the number of bins along that principal component. […]

E. coli [5] = experiment: In vivo transcription assay (tet-inducible mCherry); assay type: cell-based, Escherichia coli; conditions: 1-hour pre-treatment with 10 μg/mL H2A, 2 μM LL-37 or both; anhydrotetracycline 1 hour
Description: To determine how histone entry into the bacterial cell impacts transcription, MAL190 was cultured to mid-exponential phase, diluted 1:20 in MinA minimal medium, treated with 10 μg/mL Histone H2A and/or 2 μM LL-37, incubated for 1 hour, and induced for transcription using 50 ng/mL of anhydrotetracycline. The fluorescence of mCherry was measured after 1 hour using fluorescence microscopy.

E. coli [6] = experiment: SEM imaging of E. coli; assay type: cell-based, Escherichia coli; conditions: 10 μg/mL H2A, 1 μM LL-37 or both; 1 hour; 1 mM magnesium
Description: MG1655 was cultured to an OD600 of 0.2, diluted 1:20, and supplemented with 10 μg/mL H2A and/or 1 μM LL-37. Cells were treated for 1 hour and added to a glass bottomed petri dish for 15 minutes. Due to lower levels of adhesion, control cells were not diluted 1:20 and were incubated in the glass-bottomed petri dish for 45 minutes. Media was removed and 4% paraformaldehyde (PFA) was added for 20 minutes to fix bacteria. Dehydration was performed using serial ethanol dilutions. The fixed and dehydrated samples were coated with 10 nm of iridium using an ACE600 sputter coater (Leica Microsystems, Buffalo Grove, Ill.). Bacteria and surfaces were then characterized using a FEI Magellan 400 XHR Scanning Electron Microscope (FEI Company, Hillsboro, Oreg.) at a 45° tilt angle with an acceleration voltage of 3 kV.

E. coli [7] = experiment: Cell aggregate size and cell size analysis; assay type: cell-based, Escherichia coli
Description: MG1655 were cultured to an OD600 of 0.2, diluted 1:20 into fresh MinA minimal medium, treated with 0-4 μM LL-37 or 0-100 μg/mL H2A, and incubated for 1 hour. Cells were immobilized on an agarose pad using, imaged using phase contrast microscopy, and analyzed using our own custom-written image analysis tools^67,68. version 1.1 that was written in Matlab (Version R2017b; Mathworks, Natick, Mass.). See ‘Code Availability’ section below to download code. The total pixel area of each individual cell was determined by computing the mask area and converting from pixels to μm^2 by multiplying the mask area by a factor of 0.00422 μm^2/pixel to account for the microscope camera pixel size and objective magnification.

E. coli [8] = conditions: E. coli after 12 hours; reported (ref. 36); cited from earlier work

Row | Molecule | E. coli growth (growth rate, lag time) (E. coli [1]) | AF-H2A uptake (cellular fluorescence) (E. coli [2]) | LL-37 uptake (5-FAM-LL-37 fluorescence) (E. coli [2]; fluorescently-labeled LL-37 alone or with 10 μg/mL H2A) | CFP fluorescence / growth during 1-hour recovery period (E. coli [3]; 1-hour treatment with 10 μg/mL H2A, 1 μM LL-37, 10 μM MAG2, alone or combined) | PI fluorescence during 1-hour recovery (E. coli [3]; 1-hour treatment with H2A, LL-37, MAG2, alone or combined) | migration / retention of E. coli DNA in gel (E. coli genomic DNA) | HupA-mRuby2 localization (E. coli [4]) | chromosome localization pattern (Sytox Green) (E. coli [4]) | mCherry fluorescence (transcription induction) (E. coli [5]) | cell morphology by SEM (E. coli [6]) | aggregation of cells (E. coli [7]; H2A or LL-37, 1 hour) | cell size (E. coli [7]; LL-37 alone, indicated concentrations, 1 hour) | bulk minimum inhibitory concentration (MIC) (E. coli [8]) [µM]
1 | O=C(N[C@H](CO)[C@H](O)c1ccc([N+](=O)[O-])cc1)C(Cl)Cl [chloramphenicol, reference compound] | increased the growth lag time | did not induce AF-H2A uptake | – | – | – | – | – | – | – | – | – | – | –
2 | LL-37: human cathelicidin antimicrobial peptide LL-37 (Anaspec) | decreased the growth rate and slightly extended the lag time | significantly enhanced AF-H2A uptake | Fluorescence was observed in the cytoplasm | resumed growth and division and retained expression of CFP; also recorded: CFP fluorescence increased or remained the same | significantly lower | less retention of bacterial DNA | condensed the fluorescence near the center of the cell | no significant change in localization | little effect on mCherry fluorescence | few cell morphological differences | did not induce aggregation | significant reduction in cell size | 2
3 | polymyxin B [PMB, reference compound] | slightly inhibited growth | significantly enhanced AF-H2A uptake | – | – | – | – | – | – | – | – | – | – | –
